Measured values taken from ChEMBL document CHEMBL1132414, “New bicyclam-AZT conjugates: design, synthesis, anti-HIV evaluation, and their interaction with CXCR-4 coreceptor” (J Med Chem, 1999).
pEC50: −log10 of the molar value.

Experiments:
[1] = tested on: Human immunodeficiency virus 1; assay: microbe, parasite or virus in culture; conditions: Human immunodeficiency virus 1, MT4
Description: Concentration required to inhibit syncytia formation by 50% on HIV-1 infected MT-4 cells

physchem = conditions: octanol/water
Description: Partition coefficient (logP)

in vitro = conditions: human, uninfected MT-4 cells
Description: Concentration required to cause 50% death of uninfected MT-4 cells

[2] = octanol/water
Description: Partition coefficient (logP)

SMILES	pEC50 [1]	logP (physchem)	CC50 (in vitro) [µM]	logP [2]
CC(C)(C)OC(=O)N1CCCN(C(=O)OC(C)(C)C)CCN(C(=O)OC(C)(C)C)CCCN(C(=O)CCCC(=O)N2CCCN(C(=O)OC(C)(C)C)CCN(C(=O)OC(C)(C)C)CCCN(C(=O)OC(C)(C)C)CC2)CC1	< 4.30	6.14	10	
Cc1cn(C2CC(N=[N+]=[N-])C(COC(=O)CCCCN3CCCN(C(=O)CCCC(=O)N4CCCNCCNCCCNCC4)CCNCCCNCC3)O2)c(=O)[nH]c1=O (stereo not given)	7.30	1.81	75	
Cc1cn(C2CC(N=[N+]=[N-])C(COC(=O)CCCCN3CCCN(Cc4ccc(CN5CCCNCCNCCCNCC5)cc4)CCNCCCNCC3)O2)c(=O)[nH]c1=O (stereo not given)	8.30	1.65	75	
Cc1cn(C2CC(N=[N+]=[N-])C(COC(=O)CCCCN3CCCN(C(=O)CCCC(=O)N4CCCN(C(=O)OC(C)(C)C)CCN(C(=O)OC(C)(C)C)CCCN(C(=O)OC(C)(C)C)CC4)CCN(C(=O)OC(C)(C)C)CCCN(C(=O)OC(C)(C)C)CC3)O2)c(=O)[nH]c1=O (stereo not given)	7.30	5.85	5	
Cc1cn(C2CC(N=[N+]=[N-])C(COC(=O)CCCC(=O)N3CCCNCCNCCCNCC3)O2)c(=O)[nH]c1=O (stereo not given)	8.00	0.14	100	
Cc1cn(C2CC(N=[N+]=[N-])C(COC(=O)CCCCN3CCCN(Cc4ccc(CN5CCCN(C(=O)OC(C)(C)C)CCN(C(=O)OC(C)(C)C)CCCN(C(=O)OC(C)(C)C)CC5)cc4)CCN(C(=O)OC(C)(C)C)CCCN(C(=O)OC(C)(C)C)CC3)O2)c(=O)[nH]c1=O (stereo not given)	8.30	5.7	5	
CC(C)(C)OC(=O)N1CCCN(C(=O)OC(C)(C)C)CCN(C(=O)c2ccc(C(=O)N3CCCN(C(=O)OC(C)(C)C)CCN(C(=O)OC(C)(C)C)CCCN(C(=O)OC(C)(C)C)CC3)cc2)CCCN(C(=O)OC(C)(C)C)CC1	6.00	3.46	10	
c1cc(CN2CCCNCCNCCCNCC2)ccc1CN1CCCNCCNCCCNCC1 [PLERIXAFOR]	5.00		50	0.89
Cc1cn(C2CC(N=[N+]=[N-])C(COC(=O)CCCCN3CCCNCCNCCCNCC3)O2)c(=O)[nH]c1=O (stereo not given)	8.00	-0.21	30	
CC(C)(C)OC(=O)N1CCCN(C(=O)OC(C)(C)C)CCN(C(=O)OC(C)(C)C)CCCN(Cc2ccc(CN3CCCN(C(=O)OC(C)(C)C)CCN(C(=O)OC(C)(C)C)CCCN(C(=O)OC(C)(C)C)CC3)cc2)CC1	6.30	6.47	5	
Cc1cn(C2CC(N=[N+]=[N-])C(COC(=O)CCCC(=O)N3CCCN(C(=O)OC(C)(C)C)CCN(C(=O)OC(C)(C)C)CCCN(C(=O)OC(C)(C)C)CC3)O2)c(=O)[nH]c1=O (stereo not given)	7.30	2.68	50	
Cc1cn(C2CC(N=[N+]=[N-])C(COC(=O)CCCCN3CCCN(C(=O)c4ccc(C(=O)N5CCCNCCNCCCNCC5)cc4)CCNCCCNCC3)O2)c(=O)[nH]c1=O (stereo not given)	8.00	-1.35	75	
Cc1cn(C2CC(N=[N+]=[N-])C(COC(=O)CCCCN3CCCN(C(=O)c4ccc(C(=O)N5CCCN(C(=O)OC(C)(C)C)CCN(C(=O)OC(C)(C)C)CCCN(C(=O)OC(C)(C)C)CC5)cc4)CCN(C(=O)OC(C)(C)C)CCCN(C(=O)OC(C)(C)C)CC3)O2)c(=O)[nH]c1=O (stereo not given)	7.52	2.69	0.5	
O=C(c1ccc(C(=O)N2CCCNCCNCCCNCC2)cc1)N1CCCNCCNCCCNCC1	4.30	-2.11	100	
O=C(CCCC(=O)N1CCCNCCNCCCNCC1)N1CCCNCCNCCCNCC1	5.00	1.05	50	
